Laboratory results from patent publication US10757937B2, “Sulfonamides that activate ABA receptors” (The Regents of the University of California, priority 2014, dated 2020).
Read-outs that look alike come from different tables or passages of the source.

Key:
PYL9 = biological target: T1, PYL9 (Arabidopsis thaliana, UniProt Q84MC7); assay: receptor-mediated PP2C (HAB1) inhibition in vitro assay; assay type: biochemical; conditions: for PP2C Activity (25 μm) PYL9 / remaining activity at 25 µM: compound at 25 μM, control without agonist = 100%
T1 construct: 6X-His; made in house; host or cells: E. coli BL21[DE3]pLysS
T1 sequence (Q84MC7 1-187): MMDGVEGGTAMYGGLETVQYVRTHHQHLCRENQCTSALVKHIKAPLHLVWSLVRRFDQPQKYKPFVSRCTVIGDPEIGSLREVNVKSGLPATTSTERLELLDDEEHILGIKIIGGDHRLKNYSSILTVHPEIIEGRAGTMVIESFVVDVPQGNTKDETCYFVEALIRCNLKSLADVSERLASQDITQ
T1 sequence (Q9CAJ0 23-511 partner): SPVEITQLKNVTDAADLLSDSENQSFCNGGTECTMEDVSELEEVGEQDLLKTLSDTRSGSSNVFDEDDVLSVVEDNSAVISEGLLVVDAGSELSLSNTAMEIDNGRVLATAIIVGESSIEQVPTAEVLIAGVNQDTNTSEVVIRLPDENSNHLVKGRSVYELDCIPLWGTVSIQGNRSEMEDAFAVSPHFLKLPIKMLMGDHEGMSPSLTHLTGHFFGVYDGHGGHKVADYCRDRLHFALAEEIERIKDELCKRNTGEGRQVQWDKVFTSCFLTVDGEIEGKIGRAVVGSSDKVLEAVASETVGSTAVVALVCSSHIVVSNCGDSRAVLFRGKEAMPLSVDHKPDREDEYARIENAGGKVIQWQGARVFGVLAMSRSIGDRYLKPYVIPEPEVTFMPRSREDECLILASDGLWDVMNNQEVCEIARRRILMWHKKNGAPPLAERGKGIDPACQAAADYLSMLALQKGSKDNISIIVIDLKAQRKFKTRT
Method: (§1) A family of 62 structurally related N-acyl sulfonamides (Tables I-V) were tested for ABA agonist activity using multiple receptor-mediated PP2C inhibition in vitro assays (Park et al., 2009). […] The constructs utilized for protein expression have been previously described (Okamoto et al. 2013). For constructs encoding 6X-His-fusion proteins (all receptors except PYL11), the coding sequences were of the receptors were cloned in the vector pET28, expressed in BL21[DE3]pLysS E. coli host cells at 18° C. overnight, and subsequently purified from sonicated lysates using Ni-NTA agarose (Qiagen, USA), according to the manufacturer's instructions. PYL11 was constructed as a maltose binding protein fusion in the vector pMAL-c, expressed in BL21┌DE3┐pLysS host cells and purified using amylose resin (New England Biolabs) as described by the manufacturer. Recombinant GST-HAB1 was expressed and purified as described previously (Park et al., 2009). PP2C activity assays were conducted using the fluorogenic phosphatase substrate 4-methylumbelliferyl-phosphate. Recombinant receptors and HAB1 were used to examine ligand-induced PP2C inactivation in response to multiple test compounds. Enzyme inhibition assays were conducted using the following assay conditions: 50 nM GST-PP2C, 100 mM Tris-OAc (pH 7.9), 100 mM NaCl, 1 mM MnCl2, 1% β-mercaptoethanol. […] Because of this, the ratio of each receptor used in the PP2C-inhibitions assays was established empirically as the minimum fold-excess of receptor required to elicit maximal PP2C inhibition at a saturating ABA concentration (10 μM).
(§2) Based on this criterion, we used a ratio of 2:1 receptor in the assays described herein.
(§3) Using the above assay conditions, compounds were tested at 25 μM for agonist activity on PYL4, PYL5, PYL8 and PYL9. […] Consequently, a subset of the compounds was tested at multiple concentrations against 11 receptors so that IC50 values and receptor selectivity profiles could be examined. […] Thus, the N-acylsulfonamide agonists disclosed are selective for monomeric receptors.
(§4) Additional compounds were tested for biological activity following the procedures of Example 1 with minor modifications.
(§5) For these in vitro receptor assays, the compounds listed were tested in in vitro PP2C inhibition assays with 50 uM of the test compound except for ABA (10 uM). IC50s were calculated from dose curves, but only for selected compounds.

PYL4 = biological target: T2, PYL4 (Arabidopsis thaliana, UniProt O80920); assay: as above; assay type: biochemical; conditions: compound at 25 μM; control without agonist = 100%
T2 construct: 6X-His; made in house; host or cells: E. coli BL21[DE3]pLysS
T2 sequence (O80920 1-207): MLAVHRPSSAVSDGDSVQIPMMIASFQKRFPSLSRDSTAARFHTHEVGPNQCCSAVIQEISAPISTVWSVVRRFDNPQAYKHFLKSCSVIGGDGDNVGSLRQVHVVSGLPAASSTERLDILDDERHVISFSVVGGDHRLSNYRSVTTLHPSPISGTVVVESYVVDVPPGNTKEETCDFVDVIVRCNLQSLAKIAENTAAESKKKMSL
T2 sequence (Q9CAJ0 23-511 partner): T1 sequence (Q9CAJ0 23-511 partner)
Method: as §1, §2, §3, §4, §5

PYL5 = biological target: T3, PYL5 (Arabidopsis thaliana, UniProt Q9FLB1); assay: as above; assay type: biochemical; conditions: for PP2C Activity (25 μm) PYL5 / remaining activity at 25 µM: compound at 25 μM, control without agonist = 100%
T3 construct: 6X-His; made in house; host or cells: E. coli BL21[DE3]pLysS
T3 sequence (Q9FLB1 1-203): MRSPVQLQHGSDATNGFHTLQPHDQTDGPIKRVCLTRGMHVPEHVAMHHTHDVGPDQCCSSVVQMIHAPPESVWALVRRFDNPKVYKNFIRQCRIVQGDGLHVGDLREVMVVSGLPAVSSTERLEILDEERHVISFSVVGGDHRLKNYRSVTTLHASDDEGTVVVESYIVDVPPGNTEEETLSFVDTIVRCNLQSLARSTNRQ
T3 sequence (Q9CAJ0 23-511 partner): T1 sequence (Q9CAJ0 23-511 partner)
Method: as §1, §2, §3, §4, §5

PYL8 = biological target: T4, PYL8 (Arabidopsis thaliana, UniProt Q9FGM1); assay: as above; assay type: biochemical; conditions: for PP2C Activity (25 μm) PYL8 / remaining activity at 25 µM: compound at 25 μM, control without agonist = 100%
T4 construct: 6X-His; made in house; host or cells: E. coli BL21[DE3]pLysS
T4 sequence (Q9FGM1 1-188): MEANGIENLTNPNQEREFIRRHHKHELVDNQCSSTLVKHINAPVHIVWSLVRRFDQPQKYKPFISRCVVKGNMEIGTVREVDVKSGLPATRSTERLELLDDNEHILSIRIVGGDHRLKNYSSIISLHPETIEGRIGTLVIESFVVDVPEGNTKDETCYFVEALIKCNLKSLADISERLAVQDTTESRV
T4 sequence (Q9CAJ0 23-511 partner): T1 sequence (Q9CAJ0 23-511 partner)
Method: as §1, §2, §3, §4, §5

[1] = system: Arabidopsis seed germination and hypocotyl growth; assay: Arabidopsis seed germination and hypocotyl growth; assay type: in vivo; conditions: − = none; for Hypocotyl Growth Inhibition: lowest concentration that inhibited hypocotyl growth in wells where seeds germinated; for minimal effective concentration: Table VIII, tested at 10 or 50 μM, lowest inhibiting concentration
Method: We germinated seeds from wild type on ½× strength Murashige and Skoog salts growth medium containing either 10 or 50 μM for all 62 compounds as well as 1 μM (+)-ABA and mock controls. […] To investigate if the any of the compounds are sufficient to control vegetative ABA responses, we treated three week old Arabidopsis plants with aqueous solutions containing 0.02% Silwet and either 50 μM of selected N-acylsulfonamides, 50 μM ABA or 0.1% DMSO (the carrier solvent for the compounds tested). The leaf temperatures were subsequently examined using a thermal imaging camera 24 hours after treatment. It is well known that ABA-induced guard cell closure reduces transpiration, which leads to increases in leaf temperatures. It has been estimated that a 1° C. increase in leaf temperature correlates with a decrease in transpiration rates by approximately 50% (Sirault et al., 2009). Since guard cell aperture is the primary determinant of transpiration rates, thermal imaging is a useful way to indirectly infer relative transpiration rates and, indirectly, relative degrees of guard cell opening at the whole plant level.
as §4
For the germination inhibition experiment, the compounds were tested at 10 and 50 uM. The amounts shown are the lowest of the two concentrations that either inhibited germination or hypocotyl growth in wells where seeds germinated.
For the germination test, the compounds were tested at 1, 5, 10, 25 and 50 uM. The amounts shown are the lowest of the concentrations that either inhibited germination or hypocotyl growth in the wells where seeds germinated.

PYL6 = biological target: T5, PYL6 (Arabidopsis thaliana, UniProt Q8S8E3); assay: receptor-mediated PP2C (HAB1) inhibition in vitro assay; assay type: biochemical; conditions: Table VII; read-out: PP2C Dose Curves PYL6 (IC50)
T5 construct: 6X-His; made in house; host or cells: E. coli BL21[DE3]pLysS
T5 sequence (Q8S8E3 1-215): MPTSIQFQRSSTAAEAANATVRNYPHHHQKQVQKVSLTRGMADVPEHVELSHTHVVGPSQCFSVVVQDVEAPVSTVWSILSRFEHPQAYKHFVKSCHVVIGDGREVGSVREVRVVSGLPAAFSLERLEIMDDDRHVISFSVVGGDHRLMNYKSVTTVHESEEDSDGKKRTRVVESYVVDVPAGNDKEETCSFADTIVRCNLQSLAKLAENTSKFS
T5 sequence (Q9CAJ0 23-511 partner): T1 sequence (Q9CAJ0 23-511 partner)
Method: as §1, §2, §3, §4, §5

PYL11 = biological target: T6, PYL11 (Arabidopsis thaliana, UniProt Q9FJ50); assay: as above; assay type: biochemical; conditions: Table VII; read-out: PP2C Dose Curves PYL11 (IC50)
T6 construct: made in house; host or cells: E. coli BL21[DE3]pLysS
T6 sequence (Q9FJ50 1-161): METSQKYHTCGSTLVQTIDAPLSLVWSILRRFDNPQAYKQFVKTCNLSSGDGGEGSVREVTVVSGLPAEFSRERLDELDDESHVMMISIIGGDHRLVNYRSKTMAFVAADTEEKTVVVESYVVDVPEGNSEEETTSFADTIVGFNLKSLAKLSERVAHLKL
T6 sequence (Q9CAJ0 23-511 partner): T1 sequence (Q9CAJ0 23-511 partner)
Method: as §1, §2, §3, §4, §5

[2] = Germination Inhibition II, tested at 10 and 50 uM
[3] = read-out: Hypocotyl Growth Inhibition

Row | Structure (SMILES) | PP2C Activity (25 μm) PYL9 (PYL9) [%] | PP2C Activity (25 μm) PYL4 (PYL4) [%] | PP2C Activity (25 μm) PYL5 (PYL5) [%] | PP2C Activity (25 μm) PYL8 (PYL8) [%] | Hypocotyl Growth Inhibition [1, 2] [µM] | minimal effective concentration [1, 3] [µM] | Germination Inhibition ([1]; Germination Inhibition II, tested at 10 and 50 uM, lowest of the two concentrations that inhibited) [µM] | minimal effective concentration ([1]; ABA at 1 μM, read-out: Germination Inhibition) [µM] | IC50 (PYL6) [µM] | IC50 (PYL9; Table VII, read-out: PP2C Dose Curves PYL9 (IC50)) [µM] | remaining activity at 25 µM (PYL9) [%] | remaining activity at 25 µM (PYL4) [%] | IC50 (PYL5; Table VII, read-out: PP2C Dose Curves PYL5 (IC50)) [µM] | remaining activity at 25 µM (PYL5) [%] | IC50 (PYL11) [µM] | IC50 (PYL8; Table VII, read-out: PP2C Dose Curves PYL8 (IC50)) [µM] | remaining activity at 25 µM (PYL8) [%] | minimal effective concentration ([1]; Arabidopsis thaliana, read-out: Hypocotyl Growth Inhibition) [µM]
1 | Cc1cccc(C2(C(=O)NS(=O)(=O)Cc3ccc(C#N)cc3)CC2)c1 [Compound 38] | 66 | 92 | 41 | 77 | 50 | 50 | – | – | – | – | – | – | – | – | – | – | – | –
2 | COc1ccc(C2(C(=O)NS(=O)(=O)Cc3ccc(C#N)cc3)CCCC2)cc1 [Compound 39] | 66 | 98 | 110 | 71 | 10 | 10 | 50 | 50 | – | – | – | – | – | – | – | – | – | –
3 | COc1ccccc1C1(C(=O)NS(=O)(=O)Cc2ccc(C#N)cc2)CC1 [Compound 41] | 81 | 93 | 27 | 89 | 10 | 10 | – | – | – | – | – | – | – | – | – | – | – | –
4 | N#Cc1ccc(CS(=O)(=O)NC(=O)C2(c3cccc(F)c3)CC2)cc1 [Compound 46] | – | – | – | – | – | – | – | – | 15.3 | 39.6 | 55 | 95 | 7.06 | 24 | 18.5 | 111 | 73 | –
5 | CC(C)(C(=O)NS(=O)(=O)Cc1ccc(C#N)cc1)c1ccc2c(c1)OCCO2 [Compound 53] | 98 | 89 | 95 | 99 | 50 | 50 | – | – | – | – | – | – | – | – | – | – | – | –
6 | CC(C)(C(=O)NS(=O)(=O)Cc1ccc(C#N)cc1)c1ccc2ccccc2c1 [Compound 54] | 109 | 97 | 68 | 106 | 50 | 50 | – | – | – | – | – | – | – | – | – | – | – | –
7 | CC1(C(=O)NS(=O)(=O)Cc2ccc(C#N)cc2)CCCc2ccccc21 (centres unmarked) [Compound 61] | – | – | – | – | 50 | – | – | – | – | – | 68 | 91 | – | 16 | – | – | 75 | 50
